# Reference: ChEMBL document CHEMBL1201862, “PubChem BioAssay data set” (2004)
# Values joined by “and” are separate entries in the source; they are usually repeats but may differ in a detail not shown here. Equal entries are not always repeated. Active and inactive are the calls of the source.
# Tests used:
# INS1 [1] = test: suppression of cytokine-induced beta-cell apoptosis – INS-1E, caspase luminescence, dry powder, beta-cell apoptosis inhibitor project, dose response (AID 488848); format: functional, cell-based; settings: Rattus norvegicus
# INS1 [2] = test: Primary beta islet insulin ELISA Measured in Cell-Based System Using Plate Reader - 2061-09_Inhibitor_Dose_DryPowder_Activity. [Related pubchem assays (depositor defined):AID435007]; format: functional; settings: Rattus norvegicus
# [3] = Primary Beta Cell Apoptosis assay Measured in Cell-Based System Using Plate Reader - 2061-07_Inhibitor_Dose_DryPowder_Activity_Set2. [Related pubchem assays (depositor defined):AID435007]; format: functional; settings: Homo sapiens
# [4] = suppression of NO production in INS-1E cells – cell-based, Griess absorbance, dry powder, set 3, dose response (AID 488870); format: functional, Rattus norvegicus
# INS1 [5] = test: INS-1E mitochondrial potential rescue under cytokines – cell-based, JC-1 fluorescence ratio, dry powder, dose response (AID 488931); format: functional; settings: Rattus norvegicus
# INS1 [6] = test: Glucose-induced Insulin secretion ELISA Measured in Cell-Based System Using Plate Reader - 2061-05_Inhibitor_Dose_DryPowder_Activity. [Related pubchem assays (depositor defined):AID435007]; format: functional; settings: Rattus norvegicus
# [7] = target: T1, Cyclin-dependent kinase 5/CDK5 activator 1 (Homo sapiens, UniProt Q00535); test: inhibitors of human CDK5 activity – biochemical, microfluidic mobility shift, dry powder, set 2, selectivity assay for GSK3beta inhibitor project, dose response (AID 623979); format: functional
# T1 sequence (Q00535 whole entry): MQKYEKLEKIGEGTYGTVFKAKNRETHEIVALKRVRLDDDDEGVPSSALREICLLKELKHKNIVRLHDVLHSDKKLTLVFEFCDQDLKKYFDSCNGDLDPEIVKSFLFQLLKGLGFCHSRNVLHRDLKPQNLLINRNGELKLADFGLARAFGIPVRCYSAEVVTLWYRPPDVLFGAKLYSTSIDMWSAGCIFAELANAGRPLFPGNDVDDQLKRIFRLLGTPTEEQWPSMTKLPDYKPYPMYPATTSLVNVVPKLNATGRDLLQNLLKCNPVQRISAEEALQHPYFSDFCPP
# T1 sequence (Q15078 whole entry, further chain): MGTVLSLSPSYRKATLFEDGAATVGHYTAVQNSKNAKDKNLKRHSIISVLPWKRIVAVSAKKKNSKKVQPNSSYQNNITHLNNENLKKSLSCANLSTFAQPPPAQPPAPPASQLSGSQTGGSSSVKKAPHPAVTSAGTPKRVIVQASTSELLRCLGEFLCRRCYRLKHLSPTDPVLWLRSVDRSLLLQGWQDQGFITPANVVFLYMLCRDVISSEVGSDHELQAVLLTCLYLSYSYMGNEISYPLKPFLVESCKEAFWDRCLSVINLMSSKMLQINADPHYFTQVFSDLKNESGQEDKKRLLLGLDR
# [8] = target: T2, Glycogen synthase kinase-3 alpha (Homo sapiens, UniProt P49840); test: Inhibition of Human GSK-3 alpha Activity Measured in Biochemical System Using Microfluidics - 2063-06_Inhibitor_Dose_DryPowder_Activity_Set2. [Related pubchem assays (depositor defined):AID2709]
# T2 sequence (P49840 whole entry): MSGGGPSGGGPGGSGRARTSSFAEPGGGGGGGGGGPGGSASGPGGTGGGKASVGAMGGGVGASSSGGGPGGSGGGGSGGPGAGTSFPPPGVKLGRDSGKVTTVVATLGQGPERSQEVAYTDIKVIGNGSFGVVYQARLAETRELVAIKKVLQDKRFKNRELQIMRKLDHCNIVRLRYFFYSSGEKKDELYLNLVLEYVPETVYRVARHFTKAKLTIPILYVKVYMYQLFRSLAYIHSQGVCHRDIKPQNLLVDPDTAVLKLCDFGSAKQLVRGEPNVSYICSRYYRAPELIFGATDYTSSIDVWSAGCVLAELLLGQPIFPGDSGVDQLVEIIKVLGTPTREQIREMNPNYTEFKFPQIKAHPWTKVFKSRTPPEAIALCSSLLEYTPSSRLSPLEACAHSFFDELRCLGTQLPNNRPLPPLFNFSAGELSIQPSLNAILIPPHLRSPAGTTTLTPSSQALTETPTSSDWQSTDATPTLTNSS
# [9] = target: T3, Glycogen synthase kinase-3 beta (Homo sapiens, UniProt P49841); test: inhibition of human GSK3B activity – biochemical, microfluidics, dry powder samples, set 2, dose response (AID 623989); format: functional
# T3 sequence (P49841 whole entry): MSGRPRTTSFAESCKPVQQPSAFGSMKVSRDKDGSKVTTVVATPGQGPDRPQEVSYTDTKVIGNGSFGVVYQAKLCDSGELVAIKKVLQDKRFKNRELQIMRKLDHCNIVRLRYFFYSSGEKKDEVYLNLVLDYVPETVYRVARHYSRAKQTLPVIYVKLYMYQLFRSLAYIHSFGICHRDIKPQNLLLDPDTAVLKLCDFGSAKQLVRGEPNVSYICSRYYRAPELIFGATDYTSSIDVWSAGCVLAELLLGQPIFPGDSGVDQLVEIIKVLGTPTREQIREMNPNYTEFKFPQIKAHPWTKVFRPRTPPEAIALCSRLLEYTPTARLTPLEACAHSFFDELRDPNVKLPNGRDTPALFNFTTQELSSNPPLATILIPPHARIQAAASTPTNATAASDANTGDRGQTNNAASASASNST
# [10] = target: T1, Cyclin-dependent kinase 5/CDK5 activator 1; test: human CDK5 activity blockade – biochemical, microfluidic mobility shift, dry powder, selectivity assay for GSK-3 alpha inhibitor project, dose response (AID 588430)
# [11] = target: T3, Glycogen synthase kinase-3 beta; test: Inhibition of Human GSK-3 beta Activity Measured in Biochemical System Using Microfluidics - 2063-05_Inhibitor_Dose_DryPowder_Activity_Set2. [Related pubchem assays (depositor defined):AID2709]
# [12] = target: T2, Glycogen synthase kinase-3 alpha; test: GSK3A enzyme blockers, homolog specificity check – biochemical, microfluidics, dry powder samples, set 2, selectivity assay for GSK3beta inhibitor project, dose response (AID 623978); format: functional
# [13] = target: Latent membrane protein 1 (Human herpesvirus 4 (strain B95-8), UniProt P03230); test: LMP1 TES1 pathway selectivity over dsRED control – imaging, HEK293T, dual-color eGFP/dsRED, cherry-picks, selectivity assay for LMP1 NF-kB inhibitor project, dose response (AID 588398); format: functional, cell-based
# [14] = target: T4, Orexin/Hypocretin receptor type 1 (Homo sapiens, UniProt O43613); test: (§1) Fluorescence-based cell-based high throughput dose response assay for antagonists of the orexin 1 receptor (OX1R; HCRTR1). [Related pubchem assays (depositor defined):AID434989, AID435008, AID463079, AID485270, AID492963, AID492964, AID492965, AID493232, AID504717, AID504718]; format: functional
# T4 sequence (O43613 whole entry): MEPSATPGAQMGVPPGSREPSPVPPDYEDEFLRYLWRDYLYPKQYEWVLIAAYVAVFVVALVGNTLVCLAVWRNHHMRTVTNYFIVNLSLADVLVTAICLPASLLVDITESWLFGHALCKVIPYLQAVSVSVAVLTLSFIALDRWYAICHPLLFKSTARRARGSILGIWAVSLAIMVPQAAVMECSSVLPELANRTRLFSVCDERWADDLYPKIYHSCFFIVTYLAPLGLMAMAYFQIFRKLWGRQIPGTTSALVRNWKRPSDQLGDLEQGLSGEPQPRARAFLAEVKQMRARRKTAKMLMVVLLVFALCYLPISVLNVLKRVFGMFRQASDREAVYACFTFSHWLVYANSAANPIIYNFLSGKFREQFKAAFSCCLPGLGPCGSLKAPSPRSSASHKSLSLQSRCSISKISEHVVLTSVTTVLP
# [15] = (§2) Counterscreen for antagonists of the orexin 1 receptor (OX1R; HCRTR1): Fluorescence-based cell-based high throughput dose response assay to identify antagonists of the parental CHO cell line. [Related pubchem assays (depositor defined):AID434989, AID435008, AID463079, AID485270, AID492963, AID492964, AID492965, AID493232, AID504699, AID504701]; format: functional
# [16] = target: Peroxisome proliferator-activated receptor gamma/Nuclear receptor corepressor 2 (Homo sapiens, UniProt P37231+Q9Y618); test: Counterscreen for NR2E3 inverse agonists: TR-FRET-based biochemical high throughput dose response assay to identify inverse agonists of the interaction between peroxisome proliferator-activated receptor gamma (PPARg) and nuclear receptor co-repressor 2 (NCOR2).; format: functional
# [17] = target: T4, Orexin/Hypocretin receptor type 1; test: as §1, with “Homogeneous Time Resolved Fluorescence (HTRF)-based” for “Fluorescence-based”; format: functional
# Orexin receptor type 2 [18] = target: T5, Orexin receptor type 2 (Homo sapiens, UniProt O43614); test: Counterscreen assay for antagonists of the orexin 1 receptor (OX1R; HCRTR1): Fluorescence-based cell-based dose response assay for antagonists of the orexin 2 receptor (OX2R; HCRTR2), run by assay provider.; format: functional
# T5 sequence (O43614 whole entry): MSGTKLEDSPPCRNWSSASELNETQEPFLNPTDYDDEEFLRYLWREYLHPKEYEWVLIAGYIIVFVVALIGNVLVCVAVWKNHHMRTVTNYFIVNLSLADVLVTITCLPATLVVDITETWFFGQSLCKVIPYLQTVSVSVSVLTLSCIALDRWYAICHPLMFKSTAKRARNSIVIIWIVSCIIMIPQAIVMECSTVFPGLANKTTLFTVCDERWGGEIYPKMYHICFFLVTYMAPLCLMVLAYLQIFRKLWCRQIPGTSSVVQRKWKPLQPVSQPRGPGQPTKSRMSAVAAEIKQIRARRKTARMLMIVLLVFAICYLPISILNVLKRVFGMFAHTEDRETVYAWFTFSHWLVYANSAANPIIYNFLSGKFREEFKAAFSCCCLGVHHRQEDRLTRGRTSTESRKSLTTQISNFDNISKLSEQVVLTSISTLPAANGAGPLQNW
# Orexin receptor type 2 [19] = target: T5, Orexin receptor type 2; test: Counterscreen assay for antagonists of the orexin 1 receptor (OX1R; HCRTR1): Homogeneous Time Resolved Fluorescence (HTRF)-based cell-based dose response assay for antagonists of the orexin 2 receptor (OX2R; HCRTR2), run by assay provider.; format: functional
# CHO-K1 = test: as §2, with “Homogeneous time resolved fluorescence (HTRF)-based” for “Fluorescence-based”, “cell-based” for “cell-based high throughput”, “CHO-K1” for “CHO”; format: functional; settings: Cricetulus griseus;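 note: potency for inhibition of ATP-stimulated IP1 production as antagonists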
# [20] = target: Photoreceptor-specific nuclear receptor (Homo sapiens, UniProt Q9Y5X4); test: ligands suppressing NR2E3 nuclear receptor activity – biochemical, TR-FRET, dose response (AID 463256); format: functional
# Aurora kinase B = Aurora kinase B (Homo sapiens, UniProt Q96GD4); format: functional
# [21] = target: Mitogen-activated protein kinase kinase kinase kinase 5 (Homo sapiens, UniProt Q9Y4K4); format: functional;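 note: measured as one member of a kinome-spanning kinase panel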
# Sequence of Mitogen-activated protein kinase kinase kinase kinase 5 (Q9Y4K4 whole entry): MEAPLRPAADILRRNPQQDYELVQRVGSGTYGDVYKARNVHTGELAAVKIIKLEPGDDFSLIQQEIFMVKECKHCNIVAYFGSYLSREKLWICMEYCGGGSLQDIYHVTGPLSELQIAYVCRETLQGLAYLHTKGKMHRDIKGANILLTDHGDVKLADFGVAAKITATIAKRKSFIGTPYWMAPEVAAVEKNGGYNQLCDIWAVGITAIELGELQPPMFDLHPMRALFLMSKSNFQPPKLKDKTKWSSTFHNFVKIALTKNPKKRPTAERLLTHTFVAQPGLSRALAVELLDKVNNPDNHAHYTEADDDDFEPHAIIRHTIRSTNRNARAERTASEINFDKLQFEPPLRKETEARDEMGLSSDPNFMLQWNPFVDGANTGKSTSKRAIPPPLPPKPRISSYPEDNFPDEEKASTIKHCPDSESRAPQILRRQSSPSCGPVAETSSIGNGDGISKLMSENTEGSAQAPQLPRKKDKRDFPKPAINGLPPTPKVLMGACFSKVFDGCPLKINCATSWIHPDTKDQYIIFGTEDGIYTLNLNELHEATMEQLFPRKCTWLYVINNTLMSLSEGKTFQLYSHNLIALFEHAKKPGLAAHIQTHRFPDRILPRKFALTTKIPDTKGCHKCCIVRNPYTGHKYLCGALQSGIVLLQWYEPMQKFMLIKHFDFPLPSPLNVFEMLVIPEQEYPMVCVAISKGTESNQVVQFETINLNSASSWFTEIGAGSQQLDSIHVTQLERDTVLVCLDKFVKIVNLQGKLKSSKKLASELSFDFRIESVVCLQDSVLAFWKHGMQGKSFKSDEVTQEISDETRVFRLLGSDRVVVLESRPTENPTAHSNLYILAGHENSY
# [22] = target: T6, Receptor-type tyrosine-protein kinase FLT3 (Homo sapiens, UniProt P36888); format: functional;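 note: FLT3 was tested as one member of a kinome-wide kinase panel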
# T6 sequence (P36888 whole entry): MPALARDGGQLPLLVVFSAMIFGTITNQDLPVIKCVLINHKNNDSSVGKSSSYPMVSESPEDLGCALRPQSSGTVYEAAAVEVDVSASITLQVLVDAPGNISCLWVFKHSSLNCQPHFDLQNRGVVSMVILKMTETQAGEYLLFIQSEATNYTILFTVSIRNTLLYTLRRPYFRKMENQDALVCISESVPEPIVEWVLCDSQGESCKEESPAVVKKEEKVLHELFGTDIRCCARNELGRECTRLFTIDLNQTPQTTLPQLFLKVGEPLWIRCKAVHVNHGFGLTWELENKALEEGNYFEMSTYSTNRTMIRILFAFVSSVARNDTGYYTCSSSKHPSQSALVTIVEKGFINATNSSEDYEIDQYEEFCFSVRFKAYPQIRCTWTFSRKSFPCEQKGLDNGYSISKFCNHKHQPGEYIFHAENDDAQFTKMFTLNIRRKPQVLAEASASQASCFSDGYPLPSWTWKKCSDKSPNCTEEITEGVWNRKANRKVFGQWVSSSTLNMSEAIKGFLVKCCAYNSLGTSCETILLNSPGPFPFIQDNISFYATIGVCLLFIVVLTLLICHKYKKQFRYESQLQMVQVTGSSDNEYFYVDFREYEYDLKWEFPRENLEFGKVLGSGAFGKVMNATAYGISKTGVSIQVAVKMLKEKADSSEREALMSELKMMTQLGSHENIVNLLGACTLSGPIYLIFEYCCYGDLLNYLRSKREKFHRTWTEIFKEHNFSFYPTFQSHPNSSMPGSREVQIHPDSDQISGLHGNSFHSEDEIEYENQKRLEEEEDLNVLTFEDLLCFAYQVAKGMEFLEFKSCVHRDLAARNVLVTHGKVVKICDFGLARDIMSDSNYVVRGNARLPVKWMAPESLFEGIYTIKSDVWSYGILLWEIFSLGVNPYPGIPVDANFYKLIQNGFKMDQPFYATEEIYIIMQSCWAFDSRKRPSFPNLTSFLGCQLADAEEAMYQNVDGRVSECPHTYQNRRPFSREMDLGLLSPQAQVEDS
# [23] = target: Mitogen-activated protein kinase kinase kinase 20 (Homo sapiens, UniProt Q9NYL2); format: functional
# [24] = target: Dual specificity protein kinase CLK4 (Homo sapiens, UniProt Q9HAZ1); format: functional
# Sequence of Dual specificity protein kinase CLK4 (Q9HAZ1 whole entry): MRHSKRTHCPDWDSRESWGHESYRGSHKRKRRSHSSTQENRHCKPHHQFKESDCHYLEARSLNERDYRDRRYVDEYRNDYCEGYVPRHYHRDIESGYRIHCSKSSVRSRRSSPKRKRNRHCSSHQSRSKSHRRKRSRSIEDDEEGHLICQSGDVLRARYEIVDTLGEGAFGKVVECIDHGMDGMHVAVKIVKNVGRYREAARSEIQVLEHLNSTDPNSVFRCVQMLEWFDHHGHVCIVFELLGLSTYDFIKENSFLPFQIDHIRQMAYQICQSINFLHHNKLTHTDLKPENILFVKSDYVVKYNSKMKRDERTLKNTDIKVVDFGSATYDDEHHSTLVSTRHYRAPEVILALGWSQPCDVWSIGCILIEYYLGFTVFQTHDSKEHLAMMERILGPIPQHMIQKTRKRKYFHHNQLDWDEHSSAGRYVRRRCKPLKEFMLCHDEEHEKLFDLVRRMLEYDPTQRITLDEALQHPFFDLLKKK
# [25] = target: Mitogen-activated protein kinase kinase kinase kinase 4 (Homo sapiens, UniProt O95819); format: functional
# [26] = target: Casein kinase I isoform delta (Homo sapiens, UniProt P48730); format: functional;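 note: measured as one member (CSNK1D) of a kinome panel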
# [27] = target: T7, High affinity choline transporter 1 (Homo sapiens, UniProt Q9GZV3); test: human choline transporter blockers, potency – cell-based, 5-point CRC, membrane potential dye, dose response (AID 504840); format: functional
# T7 sequence (Q9GZV3 whole entry): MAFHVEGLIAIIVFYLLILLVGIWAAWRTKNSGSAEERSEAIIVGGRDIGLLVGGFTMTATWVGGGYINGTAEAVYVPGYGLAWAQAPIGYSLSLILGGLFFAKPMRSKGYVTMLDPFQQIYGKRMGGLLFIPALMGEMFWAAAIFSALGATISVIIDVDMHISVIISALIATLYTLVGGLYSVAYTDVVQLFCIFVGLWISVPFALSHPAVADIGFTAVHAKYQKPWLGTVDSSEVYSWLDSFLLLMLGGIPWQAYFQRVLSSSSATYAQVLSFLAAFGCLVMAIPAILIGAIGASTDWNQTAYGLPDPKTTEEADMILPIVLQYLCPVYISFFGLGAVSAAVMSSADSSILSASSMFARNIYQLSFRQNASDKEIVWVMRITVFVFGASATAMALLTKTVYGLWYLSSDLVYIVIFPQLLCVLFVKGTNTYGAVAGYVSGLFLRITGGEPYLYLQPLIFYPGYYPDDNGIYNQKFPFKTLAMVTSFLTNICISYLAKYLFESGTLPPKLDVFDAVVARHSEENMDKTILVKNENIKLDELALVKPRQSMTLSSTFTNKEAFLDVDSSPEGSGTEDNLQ
# [28] = target: T7, High affinity choline transporter 1; test: human choline transporter radiolabel uptake blockers – cell-based, 3H-choline uptake, CHT LV-AA trafficking mutant, CRC, dose response (AID 602208); format: functional
# [29] = target: T7, High affinity choline transporter 1; test: human choline transporter blockers, potency – cell-based, 10-point CRC, membrane potential dye, dose response (AID 588401); format: functional;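 note: membrane potential dye fluorescence of choline-evoked depolarization via CHT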
# HEK293 = test: EBV LMP1 TES2 canonical NF-kB signalling blockers – cell-based, HEK293, luciferase, cherry-pick, dose response (AID 588343); format: functional; settings: Homo sapiens
# [30] = target: Apoptotic protease-activating factor 1 (Homo sapiens, UniProt O14727); format: functional
# Sequence of Apoptotic protease-activating factor 1 (O14727 whole entry): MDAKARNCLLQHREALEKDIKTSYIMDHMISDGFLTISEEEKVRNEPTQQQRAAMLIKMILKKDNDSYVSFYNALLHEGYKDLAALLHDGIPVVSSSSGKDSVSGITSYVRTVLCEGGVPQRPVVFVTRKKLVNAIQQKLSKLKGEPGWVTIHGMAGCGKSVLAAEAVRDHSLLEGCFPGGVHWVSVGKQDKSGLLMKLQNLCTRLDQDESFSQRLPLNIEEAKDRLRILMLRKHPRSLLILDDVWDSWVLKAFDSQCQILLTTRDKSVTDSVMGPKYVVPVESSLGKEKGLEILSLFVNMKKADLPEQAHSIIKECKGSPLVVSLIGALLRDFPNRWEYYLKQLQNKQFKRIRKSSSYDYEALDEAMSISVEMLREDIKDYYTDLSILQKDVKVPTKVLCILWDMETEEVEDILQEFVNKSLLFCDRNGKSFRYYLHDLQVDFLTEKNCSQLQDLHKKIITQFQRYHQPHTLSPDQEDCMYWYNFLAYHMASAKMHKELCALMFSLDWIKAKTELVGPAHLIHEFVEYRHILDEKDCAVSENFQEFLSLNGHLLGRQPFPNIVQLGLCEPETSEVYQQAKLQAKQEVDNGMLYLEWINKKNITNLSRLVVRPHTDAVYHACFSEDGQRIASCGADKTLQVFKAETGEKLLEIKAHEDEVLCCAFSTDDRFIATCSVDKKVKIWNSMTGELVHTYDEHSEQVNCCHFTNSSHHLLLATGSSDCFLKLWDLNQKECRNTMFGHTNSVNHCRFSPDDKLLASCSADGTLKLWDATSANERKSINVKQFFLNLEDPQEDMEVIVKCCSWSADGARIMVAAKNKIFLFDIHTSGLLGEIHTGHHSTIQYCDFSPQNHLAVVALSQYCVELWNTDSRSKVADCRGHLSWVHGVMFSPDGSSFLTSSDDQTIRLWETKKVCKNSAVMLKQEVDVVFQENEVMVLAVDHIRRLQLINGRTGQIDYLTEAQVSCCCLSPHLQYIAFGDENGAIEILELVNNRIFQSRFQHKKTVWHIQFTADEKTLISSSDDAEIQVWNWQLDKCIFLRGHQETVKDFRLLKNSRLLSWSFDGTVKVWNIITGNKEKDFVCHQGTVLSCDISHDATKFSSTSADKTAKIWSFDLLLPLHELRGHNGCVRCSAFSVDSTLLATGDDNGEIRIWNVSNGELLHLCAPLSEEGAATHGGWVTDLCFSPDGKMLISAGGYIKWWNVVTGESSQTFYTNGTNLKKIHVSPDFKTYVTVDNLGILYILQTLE
structure (smiles),measurement,setting,value
C[C@@H]1CN([C@@H](C)CO)C(=O)c2cccc(NC(=O)Nc3cccc4ccccc34)c2O[C@H]1CN(C)S(=O)(=O)c1ccc2c(c1)OCCO2,AC50,INS1 [1],2.22 µM (active)
same,AC50,INS1 [2],< 0.5 µM (active)
same,AC50,[3],6.7 µM (active)
same,AC50,[4],33.7 µM (active)
same,AC50,[4]; Rattus norvegicus,57.6 µM (active)
same,AC50,INS1 [5],83.8 µM (active)
same,AC50,INS1 [6],4.79 µM (active)
O=C1Nc2ccc3ncsc3c2/C1=C/Nc1ccc(S(=O)(=O)Nc2ccccn2)cc1,AC50,[7],< 0.023 µM (active)
same,AC50,[8],144 nM (active) and 206 nM (active)
same,AC50,[9],11.3 nM (active) and < 30 nM (active)
same,AC50,[10],< 10 nM (active) and < 16 nM (active)
same,AC50,[11],12.4 nM (active) and < 16 nM (active)
same,AC50,[12],121 nM (active) and 281 nM (active)
COc1ccccc1NC(=O)Cn1nnc(-c2ccccc2NS(=O)(=O)c2ccccc2)n1,AC50,[13],87 µM (active)
O=C(CSc1ccc(-c2cccs2)nn1)c1cccs1,IC50,[14],> 0.614 µM (active)
same,IC50,[15],> 49.8 µM (inactive)
same,IC50,[16],9.5 µM (active)
same,IC50,[17],2.28 µM (active)
same,IC50,Orexin receptor type 2 [18],> 88.8 µM (inactive)
same,IC50,Orexin receptor type 2 [19],> 50 µM (inactive)
same,IC50,CHO-K1,> 66.2 µM (inactive)
same,IC50,[20],8.97 µM (active)
c1cncc(Nc2ncc(-c3ccncn3)c(-c3ccco3)n2)c1,Ki,Aurora kinase B,2.51 µM (active)
same,Ki,[21],3.98 µM (active)
same,Ki,[22],1.26 µM (active)
same,Ki,[23],5.01 µM (active)
same,Ki,[24],3.16 µM (active)
same,Ki,[25],6.31 µM (active)
same,Ki,[26],2 µM (active)
CCCN1CCC(Oc2cccc(C(=O)NCCc3ccccc3)c2)CC1,IC50,[27],10 µM (active)
same,IC50,[28],3.76 µM (active)
same,IC50,[29],4.22 µM (active)
CCN(c1ccccc1)S(=O)(=O)c1ccc(Cl)c(NC(=O)Nc2ccc(Cl)cc2C#N)c1,AC50,HEK293,4.55 µM (active)
same,IC50,[30],8.98 µM (active)
